From patent US12281225B2, “Process for preparing stable polymers containing vinylimidazole” (BASF SE, priority 2018, dated 2025)

Tests used:
Type in all cases: physicochemical
[1] = Analysis of active substance: preservative concentration before and after storage in VI-containing polymer solution; conditions: for active-substance concentration, 0 d, RT: before storage; for active-substance concentration, 14 d, 40° C.: storage 14 d at 40° C.; for active-substance concentration, 28 d, 40° C.: storage 28 d at 40° C.; for active-substance concentration, 60 d 40° C.: storage 60 d at 40° C.
Method: Stability of Preservatives in VI-Containing Polymers:
The following stabilizers for VI-containing polymers (here: aqueous solution of a copolymer of vinylpyrrolidone and vinylimidazole) were tested.
MIT, BIT, CMIT, OIT, DCOIT and iodopropynyl butyl carbamate were determined by RP chromatography with UV detection after dilution of the sample to be tested. An RP18 column was used for this purpose, with an eluent composed of an acid-methanol mixture under isocratic conditions.

[2] = Iodine color number according to DIN 6162:2014-09
[3] = Physical stability; visual assessment (color, turbidity, phase separation); set-up: key: ++: no discernible change with respect to color, turbidity or phase separation; +: marginal change in color number, somewhat increased Tyndall effect but no turbidity; 0: easily discernible increase in color number and moderate turbidity−no phase separation; −: turbidity and change in color number readily discernible by visual assessment; −−: strong color change with strong turbidity and incipient phase separation
From the text: Physical stability; visual assessment according to:
++=no discernible change with respect to color, turbidity or phase separation; +=marginal change in color number, somewhat increased Tyndall effect but no turbidity; 0=easily discernible increase in color number and moderate turbidity−no phase separation; − turbidity and change in color number readily discernible by visual assessment; −− strong color change with strong turbidity and incipient phase separation.
Before storage, all batches could be rated ++ (no turbidity or phase separation; no influence of the biocide on the color number of the product).

[4] = Polymer P5 (HP56) with stabilizer

benzalkonium chloride [BAC]
active-substance concentration, 0 d, RT ([1]; in Polymer P1): 1000 ppm | active-substance concentration, 14 d, 40° C. ([1]; in Polymer P1): 990 ppm | active-substance concentration, 28 d, 40° C. ([1]; in Polymer P1): 990 ppm | active-substance concentration, 60 d 40° C. ([1]; in Polymer P1): 970 ppm | active-substance concentration, 0 d, RT ([1]; in Polymer P2): 1000 ppm | active-substance concentration, 14 d, 40° C. ([1]; in Polymer P2): 990 ppm | active-substance concentration, 28 d, 40° C. ([1]; in Polymer P2): 990 ppm | active-substance concentration, 60 d 40° C. ([1]; in Polymer P2): 970 ppm | active-substance concentration, 0 d, RT ([1]; in Polymer P3): 1000 ppm | active-substance concentration, 14 d, 40° C. ([1]; in Polymer P3): 970 ppm | active-substance concentration, 28 d, 40° C. ([1]; in Polymer P3): 973 ppm | active-substance concentration, 60 d 40° C. ([1]; in Polymer P3): 967 ppm | active-substance concentration, 0 d, RT ([1]; in Polymer P4): 1000 ppm | active-substance concentration, 14 d, 40° C. ([1]; in Polymer P4): 1000 ppm | active-substance concentration, 28 d, 40° C. ([1]; in Polymer P4): 991 ppm | active-substance concentration, 60 d 40° C. ([1]; in Polymer P4): 977 ppm | active-substance concentration, 0 d, RT ([1]; in Polymer P5 (HP56)): 1000 ppm | active-substance concentration, 14 d, 40° C. ([1]; in Polymer P5 (HP56)): 990 ppm | active-substance concentration, 28 d, 40° C. ([1]; in Polymer P5 (HP56)): 90 ppm | active-substance concentration, 60 d 40° C. ([1]; in Polymer P5 (HP56)): 970 ppm | active-substance concentration, 0 d, RT ([1]; in Polymer P6): 1000 ppm | active-substance concentration, 14 d, 40° C. ([1]; in Polymer P6): 990 ppm | active-substance concentration, 28 d, 40° C. ([1]; in Polymer P6): 981 ppm | active-substance concentration, 60 d 40° C. ([1]; in Polymer P6): 976 ppm | active-substance concentration, 0 d, RT ([1]; in Polymer P7): 1000 ppm | active-substance concentration, 14 d, 40° C. ([1]; in Polymer P7): 988 ppm | active-substance concentration, 28 d, 40° C. ([1]; in Polymer P7): 985 ppm | active-substance concentration, 60 d 40° C. ([1]; in Polymer P7): 979 ppm | active-substance concentration, 0 d, RT ([1]; in Polymer P8): 1000 ppm | active-substance concentration, 14 d, 40° C. ([1]; in Polymer P8): 990 ppm | active-substance concentration, 28 d, 40° C. ([1]; in Polymer P8): 990 ppm | active-substance concentration, 60 d 40° C. ([1]; in Polymer P8): 970 ppm | active-substance concentration, 0 d, RT ([1]; in Polymer P9): 1000 ppm | active-substance concentration, 14 d, 40° C. ([1]; in Polymer P9): 990 ppm | active-substance concentration, 28 d, 40° C. ([1]; in Polymer P9): 985 ppm | active-substance concentration, 60 d 40° C. ([1]; in Polymer P9): 975 ppm | Iodine color number, 60 d 40° C. ([2]; Polymer P1 with stabilizer): 2.8 | Iodine color number, start ([2]; Polymer P1 with stabilizer): 2.6 | Iodine color number, 60 d 40° C. ([2]; Polymer P2 with stabilizer): 3.2 | Iodine color number, start ([2]; Polymer P2 with stabilizer): 3.0 | Iodine color number, 60 d 40° C. ([2]; Polymer P3 with stabilizer): 3.3 | Iodine color number, start ([2]; Polymer P3 with stabilizer): 3.2 | Iodine color number, 60 d 40° C. ([2]; Polymer P4 with stabilizer): 3.3 | Iodine color number, start ([2]; Polymer P4 with stabilizer): 3.2 | Iodine color number, 60 d 40° C. [2, 4]: 3.3 | Iodine color number, start [2, 4]: 3.3 | Iodine color number, 60 d 40° C. ([2]; Polymer P6 with stabilizer): 3.4 | Iodine color number, start ([2]; Polymer P6 with stabilizer): 3.3 | Iodine color number, 60 d 40° C. ([2]; Polymer P7 with stabilizer): 3.4 | Iodine color number, start ([2]; Polymer P7 with stabilizer): 3.3 | Iodine color number, 60 d 40° C. ([2]; Polymer P8 with stabilizer): 3.4 | Iodine color number, start ([2]; Polymer P8 with stabilizer): 3.3 | Iodine color number, 60 d 40° C. ([2]; Polymer P9 with stabilizer): 4.0 | Iodine color number, start ([2]; Polymer P9 with stabilizer): 3.7 | Physical stability, 60 d 40° C.* ([3]; Polymer P1 with stabilizer): + | Physical stability, 60 d 40° C.* ([3]; Polymer P2 with stabilizer): + | Physical stability, 60 d 40° C.* ([3]; Polymer P3 with stabilizer): ++ | Physical stability, 60 d 40° C.* ([3]; Polymer P4 with stabilizer): + | Physical stability, 60 d 40° C.* [3, 4]: + | Physical stability, 60 d 40° C.* ([3]; Polymer P6 with stabilizer): + | Physical stability, 60 d 40° C.* ([3]; Polymer P7 with stabilizer): ++ | Physical stability, 60 d 40° C.* ([3]; Polymer P8 with stabilizer): + | Physical stability, 60 d 40° C.* ([3]; Polymer P9 with stabilizer): +
